The text below walks through data of patent US9802937B2, “Substituted pyrazolo{4,3-D}pyrimidines as kinase inhibitors” (ORIGENIS GMBH, priority 2011, dated 2017).

Molecules are shown by their SMILES. pIC50, pKi: −log10 of the molar value.

One test addresses T1, SYK kinase (Homo sapiens, UniProt P43405).
T1 construct: purchased Invitrogen, Carlsbad
The experiment in a line: SYK Assay (OMNIA KINASE ASSAY, SOX peptide fluorescence). The class given is biochemical. Particulars: apparent Ki calculated from the IC50 using the Cheng-Prusoff equation; 1 mM ATP, 30° C.; read-out: SYK Activities: Ki. The method, boiled down:
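Continuous Omnia assay: SYK phosphorylation of SOX-labelled Tyr 7 peptide (10 µM) with 1 mM ATP and 0.2 mM DTT at 30 °C. Fluorescence (ex 360/em 485 nm) read every 30 s for 30 min. Reaction velocity versus inhibitor concentration gives IC50, converted to apparent Ki by Cheng-Prusoff.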

In the next test the target is LRRK2 (Homo sapiens, UniProt Q5S007). Nature of the test: LRRK2-LRRK2 G2019S-Assay (LanthaScreen Eu Kinase Binding Assay). Particulars: 5 nM LRRK2 or their mutants, 10 nM tracer 236, RT 1 h; read-out: LRRK2 Activities: IC50. As for the experimental part:
In the assay LanthaScreen™ Eu Kinase Binding Assay by Invitrogen Corporation (Carlsbad) the effect of invention of a compound on the phosphorylation is determined by measurement of fluorescence intensity emission ratio based on the binding and displacement of a proprietary, Alexa Fluor® 647-labeled, ATP-competitive kinase inhibitor scaffold (kinase tracer) to the kinase of interest. Binding of the tracer to the kinase is detected using a europium-labeled anti-tag antibody, which binds to the kinase of interest. Simultaneous binding of both the tracer and antibody to the kinase results in a high degree of FRET (fluorescence resonance energy transfer) from the europium (Eu) donor fluorophore to the Alexa Fluor® 647 acceptor fluorophore on the kinase tracer. Binding of an inhibitor to the kinase competes for binding with the tracer, resulting in a loss of FRET. The fluorescence intensity ratio is directly proportional to the amount of peptide phosphorylation.
To the wells of an 384 well small volume plate (Greiner, Frickenhausen) are added (i) the compound under test in 5% DMSO/distilled water (5 μl), (ii) 5 μl of the kinase antibody mixture resulting in a final concentration 5 nM LRRK2 or their mutants, 2 nM EU-Anti-GST antibody in 1× kinase buffer A. The reaction was started with addition of (iii) 5 μl resulting in a final concentration of 10 nM tracer 236. The assay plate was incubated at RT for 1 h and fluorescence intensitiy readings were collected using a TECAN M1000 at two wavelengthes of λex 340/λem 615 nm and λex 340/λm 665 nm with a delay time of 100 μs and an integration time of 200 μs after 60 minutes. The emission ratio was calculated by division of the acceptor/tracer emission ([…]) by the antibody/donor emission ([…]). The inhibitor concentration was plotted versus the emission ratio to determine the IC50 using XLFit 5.0 (IDBS, Guildford) to fit to a sigmoidal dose response curve with a variable slope.

Chain of LRRK2 (Q5S007 970-2527 limits assumed): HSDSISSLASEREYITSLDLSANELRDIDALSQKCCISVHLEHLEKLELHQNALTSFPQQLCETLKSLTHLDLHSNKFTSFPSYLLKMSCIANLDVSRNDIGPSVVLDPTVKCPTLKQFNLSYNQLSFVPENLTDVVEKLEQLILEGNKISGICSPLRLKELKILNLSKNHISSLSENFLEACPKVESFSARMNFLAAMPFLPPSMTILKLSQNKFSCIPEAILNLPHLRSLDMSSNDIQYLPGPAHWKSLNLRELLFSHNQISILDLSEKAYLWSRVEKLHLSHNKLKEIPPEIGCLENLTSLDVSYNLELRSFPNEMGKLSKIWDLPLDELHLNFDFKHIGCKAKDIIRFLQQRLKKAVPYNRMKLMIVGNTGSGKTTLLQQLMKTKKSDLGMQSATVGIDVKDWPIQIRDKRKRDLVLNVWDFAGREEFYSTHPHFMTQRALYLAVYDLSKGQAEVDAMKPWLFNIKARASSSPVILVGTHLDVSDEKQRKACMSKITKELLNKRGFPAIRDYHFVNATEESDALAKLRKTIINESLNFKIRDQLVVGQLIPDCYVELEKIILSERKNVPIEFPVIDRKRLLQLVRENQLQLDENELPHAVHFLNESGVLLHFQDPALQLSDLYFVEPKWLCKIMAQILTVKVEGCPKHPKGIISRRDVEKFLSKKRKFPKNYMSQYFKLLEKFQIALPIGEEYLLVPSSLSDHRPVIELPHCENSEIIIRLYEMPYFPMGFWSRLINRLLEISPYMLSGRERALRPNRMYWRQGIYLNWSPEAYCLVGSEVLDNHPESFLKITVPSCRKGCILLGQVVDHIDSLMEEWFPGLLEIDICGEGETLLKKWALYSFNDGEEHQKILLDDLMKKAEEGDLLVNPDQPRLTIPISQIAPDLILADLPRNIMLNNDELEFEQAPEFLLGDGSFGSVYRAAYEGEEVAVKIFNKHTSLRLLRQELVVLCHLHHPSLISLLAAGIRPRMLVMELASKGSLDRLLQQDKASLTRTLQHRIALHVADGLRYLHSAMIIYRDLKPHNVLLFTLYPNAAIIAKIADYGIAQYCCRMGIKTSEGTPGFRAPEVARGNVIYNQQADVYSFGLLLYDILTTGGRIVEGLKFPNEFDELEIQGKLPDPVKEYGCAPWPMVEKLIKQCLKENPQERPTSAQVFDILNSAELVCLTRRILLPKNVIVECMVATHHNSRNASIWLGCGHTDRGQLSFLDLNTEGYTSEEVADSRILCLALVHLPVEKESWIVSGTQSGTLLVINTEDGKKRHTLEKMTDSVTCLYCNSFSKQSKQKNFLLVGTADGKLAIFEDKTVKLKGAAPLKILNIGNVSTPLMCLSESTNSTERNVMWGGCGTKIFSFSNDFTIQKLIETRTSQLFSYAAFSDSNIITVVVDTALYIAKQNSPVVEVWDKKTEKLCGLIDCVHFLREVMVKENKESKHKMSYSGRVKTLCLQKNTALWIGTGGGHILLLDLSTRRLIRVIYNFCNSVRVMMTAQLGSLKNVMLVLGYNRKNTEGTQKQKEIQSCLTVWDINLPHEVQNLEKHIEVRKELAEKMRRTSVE

The term pKi denotes the negative decadic logarithm of the Ki, by convention in mol/L. One may read the pIC50 as the IC50 on a negative log10 scale, so that one unit is a factor of ten. As to `CC1(C)CNc2cc(Nc3nc(-c4cccs4)nc4cn[nH]c34)ccc2S1` [Example #173, 2,2-dimethyl-N-(5-(thiophen-2-yl)-1H-pyrazolo[4,3-d]pyrimidin-7-yl)-3,4-dihydro-2H-benzo[b][1,4]thiazin-6-amine], at SYK kinase, the pKi is 7.00 to 8.00. Also, the pIC50 at LRRK2 is 6.00 to 7.00.
On the same counts, the results for `COc1ccccc1-c1nc(Nc2ccc3c(c2)NCCO3)c2[nH]ncc2n1` [Example #110, N-(5-(2-methoxyphenyl)-1H-pyrazolo[4,3-d]pyrimidin-7-yl)-3,4-dihydro-2H-benzo[b][1,4]oxazin-6-amine] are 7.00 to 8.00 and 6.00 to 7.00.
On the same counts, the results for `COc1ccc(Nc2nc(-c3ccc(N4CCCC4)nc3)nc3cn[nH]c23)cc1OC` [Example #32, N-(3,4-dimethoxyphenyl)-5-(6-(pyrrolidin-1-yl)pyridin-3-yl)-1H-pyrazolo[4,3-d]pyrimidin-7-amine] are 7.00 to 8.00 and 6.00 to 7.00.
For `O=C1CCc2ccc(Nc3nc(-c4nccs4)nc4cn[nH]c34)cc2N1` [Example #186, 7-((5-(thiazol-2-yl)-1H-pyrazolo[4,3-d]pyrimidin-7-yl)amino)-3,4-dihydroquinolin-2(1H)-one], in that order: more than 8.00 and 6.00 to 7.00.
In the case of `CN1Cc2ccc(Nc3nc(-c4cccs4)nc4cn[nH]c34)cc2C1` [Example #303, N-(2-methylisoindolin-5-yl)-5-(thiophen-2-yl)-1H-pyrazolo[4,3-d]pyrimidin-7-amine], the pKi at SYK kinase is more than 8.00. For the same compound, the pIC50 at LRRK2 is 6.00 to 7.00.
For `COc1ccc(-c2nc(Nc3ccc4c(c3)NC(=O)CO4)c3[nH]ncc3n2)cc1` [Example #171, 6-((5-(4-methoxyphenyl)-1H-pyrazolo[4,3-d]pyrimidin-7-yl)amino)-2H-benzo[b][1,4]oxazin-3(4H)-one], in that order: 7.00 to 8.00 and 6.00 to 7.00.
Turning to `COc1ccc(Nc2nc(-c3ccc4c(c3)NCCO4)nc3cn[nH]c23)cc1OC` [Example #300, 5-(3,4-dihydro-2H-benzo[b][1,4]oxazin-6-yl)-N-(3,4-dimethoxyphenyl)-1H-pyrazolo[4,3-d]pyrimidin-7-amine], the negative-log Ki (pKi) at SYK kinase is more than 8.00. In addition, the negative-log IC50 (pIC50) on LRRK2 was 6.00 to 7.00.
On the same counts, the results for `Fc1ccc(-c2nc(Nc3ccc(N4CCOCC4)cc3)c3[nH]ncc3n2)cc1` [Example #271, 5-(4-fluorophenyl)-N-(4-morpholinophenyl)-1H-pyrazolo[4,3-d]pyrimidin-7-amine] are 7.00 to 8.00 and 6.00 to 7.00.
For `O=C(c1ccc(Nc2nc(-c3cccs3)nc3cn[nH]c23)cc1)N1CCCC1` [Example #135, pyrrolidin-1-yl(4-((5-(thiophen-2-yl)-1H-pyrazolo[4,3-d]pyrimidin-7-yl)amino)phenyl)methanone], the pKi at SYK kinase is 7.00 to 8.00. Moreover, at LRRK2, the negative logarithm of the IC50 (pIC50) is more than 8.00.
For `COc1ccc(Nc2nc(-c3cccc(C(=O)O)c3)nc3cn[nH]c23)cc1OC` [Example #194, 3-(7-((3,4-dimethoxyphenyl)amino)-1H-pyrazolo[4,3-d]pyrimidin-5-yl)benzoic acid], in that order: more than 8.00 and 6.00 to 7.00.
With `COc1ccc(-c2nc(Nc3ccc(N(C)C)cc3)c3[nH]ncc3n2)cc1` [Example #78, N1-(5-(4-methoxyphenyl)-1H-pyrazolo[4,3-d]pyrimidin-7-yl)-N4,N4-dimethylbenzene-1,4-diamine], the pKi on SYK kinase was more than 8.00. Moreover, on LRRK2, the negative logarithm of the IC50 (pIC50) was 6.00 to 7.00.
On the same counts, the results for `COc1cccc(-c2nc(Nc3cccc(O)c3)c3[nH]ncc3n2)c1` [Example #81, 3-((5-(3-methoxyphenyl)-1H-pyrazolo[4,3-d]pyrimidin-7-yl)amino)phenol] are 7.00 to 8.00 and 6.00 to 7.00.
As to `COc1ccc(Nc2nc(-c3cccc(F)c3)nc3cn[nH]c23)cc1OC` [Example #234, N-(3,4-dimethoxyphenyl)-5-(3-fluorophenyl)-1H-pyrazolo[4,3-d]pyrimidin-7-amine], the negative-log Ki (pKi) on SYK kinase is more than 8.00. The pIC50 at LRRK2 was 6.00 to 7.00.
For `O=C1CCc2ccc(Nc3nc(-c4ncco4)nc4cn[nH]c34)cc2N1` [Example #208, 7-((5-(oxazol-2-yl)-1H-pyrazolo[4,3-d]pyrimidin-7-yl)amino)-3,4-dihydroquinolin-2(1H)-one], in that order: more than 8.00 and 6.00 to 7.00.
For `COc1cccc(-c2nc(Nc3ccc(N4CCOCC4)cc3)c3[nH]ncc3n2)c1` [Example #61, 5-(3-methoxyphenyl)-N-(4-morpholinophenyl)-1H-pyrazolo[4,3-d]pyrimidin-7-amine], in that order: more than 8.00 and 6.00 to 7.00.
On the same counts, the results for `CCN1CCN(c2ccc(Nc3nc(-c4ccccc4)nc4cn[nH]c34)cc2)CC1` [Example #119, N-(4-(4-ethylpiperazin-1-yl)phenyl)-5-phenyl-1H-pyrazolo[4,3-d]pyrimidin-7-amine] are more than 8.00 and 6.00 to 7.00.
Turning to `COc1ccc(-c2nc(Nc3ccc(N4CCN(C(C)=O)CC4)cc3)c3[nH]ncc3n2)cc1` [Example #170, 1-(4-(4-((5-(4-methoxyphenyl)-1H-pyrazolo[4,3-d]pyrimidin-7-yl)amino)phenyl)piperazin-1-yl)ethan-1-one], the negative-log Ki (pKi) at SYK kinase is more than 8.00. Further, the pIC50 at LRRK2 is 6.00 to 7.00.
On the same counts, the results for `COc1ccc(Nc2nc(-c3nc4ccccc4s3)nc3cn[nH]c23)cc1OC` [Example #96, 5-(benzo[d]thiazol-2-yl)-N-(3,4-dimethoxyphenyl)-1H-pyrazolo[4,3-d]pyrimidin-7-amine] are 7.00 to 8.00 and 6.00 to 7.00.
For `c1cc(-c2nc(Nc3ccc4c(c3)NCCO4)c3[nH]ncc3n2)cs1` [Example #84, N-(5-(thiophen-3-yl)-1H-pyrazolo[4,3-d]pyrimidin-7-yl)-3,4-dihydro-2H-benzo[b][1,4]oxazin-6-amine], in that order: more than 8.00 and 7.00 to 8.00.
On the same counts, the results for `c1cc(-c2nc(Nc3cc(C4CC4)[nH]n3)c3[nH]ncc3n2)cs1` [Example #77, N-(5-cyclopropyl-1H-pyrazol-3-yl)-5-(thiophen-3-yl)-1H-pyrazolo[4,3-d]pyrimidin-7-amine] are 7.00 to 8.00 and 7.00 to 8.00.
As to `COc1ccc(Nc2nc(-c3c(F)cccc3F)nc3cn[nH]c23)cc1OC` [Example #281, 5-(2,6-difluorophenyl)-N-(3,4-dimethoxyphenyl)-1H-pyrazolo[4,3-d]pyrimidin-7-amine], the negative logarithm of the Ki (pKi) on SYK kinase is more than 8.00. In addition, at LRRK2, the negative-log IC50 (pIC50) was 6.00 to 7.00.
Consider `c1cc(Nc2nc(-c3ccc(N4CCCC4)nc3)nc3cn[nH]c23)n[nH]1` [Example #48, N-(1H-pyrazol-3-yl)-5-(6-(pyrrolidin-1-yl)pyridin-3-yl)-1H-pyrazolo[4,3-d]pyrimidin-7-amine], for which, at SYK kinase, the negative logarithm of the Ki (pKi) is 6.00 to 7.00. The negative-log IC50 (pIC50) on LRRK2 was 6.00 to 7.00.
With `COc1cccc(-c2nc(Nc3cc(C4CC4)[nH]n3)c3[nH]ncc3n2)c1` [Example #88, N-(5-cyclopropyl-1H-pyrazol-3-yl)-5-(3-methoxyphenyl)-1H-pyrazolo[4,3-d]pyrimidin-7-amine], the pKi on SYK kinase was 6.00 to 7.00. For the same compound, the negative logarithm of the IC50 (pIC50) on LRRK2 was 6.00 to 7.00.
With `COc1ccc(-c2nc(Nc3ccc4c(c3)NC(=O)CC4)c3[nH]ncc3n2)cc1` [Example #159, 7-((5-(4-methoxyphenyl)-1H-pyrazolo[4,3-d]pyrimidin-7-yl)amino)-3,4-dihydroquinolin-2(1H)-one], the pKi on SYK kinase was 7.00 to 8.00. Moreover, on LRRK2, the negative-log IC50 (pIC50) is 6.00 to 7.00.
For `COc1cccc(-c2nc(Nc3ccc(OC)c(OC)c3)c3[nH]ncc3n2)c1` [Example #60, N-(3,4-dimethoxyphenyl)-5-(3-methoxyphenyl)-1H-pyrazolo[4,3-d]pyrimidin-7-amine], in that order: more than 8.00 and 6.00 to 7.00.
As to `O=C1COc2ccc(Nc3nc(-c4ccc(N5CCCC5)nc4)nc4cn[nH]c34)cc2N1` [Example #47, 6-((5-(6-(pyrrolidin-1-yl)pyridin-3-yl)-1H-pyrazolo[4,3-d]pyrimidin-7-yl)amino)-2H-benzo[b][1,4]oxazin-3(4H)-one], the pKi at SYK kinase was 7.00 to 8.00. Also, on LRRK2, the pIC50 is 6.00 to 7.00.
On the same counts, the results for `COc1ccc(Nc2nc(-c3cocn3)nc3cn[nH]c23)cc1OC` [Example #202, N-(3,4-dimethoxyphenyl)-5-(oxazol-4-yl)-1H-pyrazolo[4,3-d]pyrimidin-7-amine] are 7.00 to 8.00 and 6.00 to 7.00.
